The record followed here is ChEMBL document CHEMBL1201861, “Genomics of Drug Sensitity in Cancer screening data, Wellcome Trust Sanger Institute”.

What all share (experiment): cells
Common to all, as to assay type: functional, cell-based, Homo sapiens

Test [1] has as its system G-402.
Description: SANGER: Inhibition of human G-402 cell growth in a cell viability assay.
Test [2] has as its system MCF7.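 Note: growth inhibition of human MCF7 cells, read out with a cell viability assay.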
Description: SANGER: Inhibition of human MCF7 cell growth in a cell viability assay.
Test [3] deals with BHT-101.
Description: SANGER: Inhibition of human BHT-101 cell growth in a cell viability assay.
The test system of test [4] is H9.
Description: SANGER: Inhibition of human H9 cell growth in a cell viability assay.
In test [5] the test system is PFSK-1.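 Note: cell viability assay measuring how strongly compounds suppress growth of human PFSK-1 cells.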
Description: SANGER: Inhibition of human PFSK-1 cell growth in a cell viability assay.
Test [6] relates to D-423MG.
Description: SANGER: Inhibition of human D-423MG cell growth in a cell viability assay.
Test [7] has as its system HCC38.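 Note: cell viability assay on the human HCC38 cell line, with IC50 marking the concentration that inhibits cell growth.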
Description: SANGER: Inhibition of human HCC38 cell growth in a cell viability assay.
Test [8] concerns MEL-JUSO.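 Note: growth inhibition of human MEL-JUSO cells, read out with a cell viability assay.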
Description: SANGER: Inhibition of human MEL-JUSO cell growth in a cell viability assay.
In test [9] the test system is UO-31.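 Note: cell viability assay measuring inhibition of cell growth.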
Description: SANGER: Inhibition of human U031 cell growth in a cell viability assay.
Test [10] has as its system IGROV-1.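 Note: reduction of IGROV-1 cell growth, read out with a viability assay.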
Description: SANGER: Inhibition of human IGROV-1 cell growth in a cell viability assay.
Test [11] relates to MKN-28.
Description: SANGER: Inhibition of human MKN28 cell growth in a cell viability assay.
The subject of test [12] is LoVo.
Description: SANGER: Inhibition of human LoVo cell growth in a cell viability assay.
Test [13] deals with ECC10.
Description: SANGER: Inhibition of human ECC10 cell growth in a cell viability assay.
The subject of test [14] is NBsusSR.
Description: SANGER: Inhibition of human NBsusSR cell growth in a cell viability assay.
The test system of test [15] is T47D.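 Note: growth inhibition of human T47D cells, measured with a cell viability assay.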
Description: SANGER: Inhibition of human T47D cell growth in a cell viability assay.
In test [16] the test system is NCI-H2009.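 Note: cell viability assay measuring inhibition of NCI-H2009 cell growth.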
Description: SANGER: Inhibition of human NCI-H2009 cell growth in a cell viability assay.
In test [17] the test system is HMV-2 cell line.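 Note: growth inhibition of HMV-II cells, read out with a cell viability assay.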
Description: SANGER: Inhibition of human HMV-II cell growth in a cell viability assay.
For test [18], the system named is CFPAC-1.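 Note: cell viability readout used to gauge suppression of CFPAC-1 cell proliferation.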
Description: SANGER: Inhibition of human CFPAC-1 cell growth in a cell viability assay.
The test system of test [19] is NCI-H1048.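 Note: growth inhibition of human NCI-H1048 cells, read out with a cell viability assay.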
Description: SANGER: Inhibition of human NCI-H1048 cell growth in a cell viability assay.
Test [20] deals with NCI-H2452.
Description: SANGER: Inhibition of human NCI-H2452 cell growth in a cell viability assay.
Test [21] relates to A-375.
Description: SANGER: Inhibition of human A375 cell growth in a cell viability assay.
Test [22] relates to CHP-212.
Description: SANGER: Inhibition of human CHP-212 cell growth in a cell viability assay.
Test [23] has as its system C32.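 Note: cell viability assay, with IC50 reflecting inhibition of C32 cell growth.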
Description: SANGER: Inhibition of human C32 cell growth in a cell viability assay.
The test system of test [24] is TI-73.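 Note: cell viability assay measuring how much compounds suppress growth of the cultured cell line.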
Description: SANGER: Inhibition of human TI-73 cell growth in a cell viability assay.

Where only a bound is given, the exact number is not on record here.

With `Nc1cccc2c1CN(C1CCC(=O)NC1=O)C2=O` (stereo unspecified) [LENALIDOMIDE], the IC50 in test [1] (Homo sapiens, G-402) is greater than 5 µM; in [2] (Homo sapiens, MCF7), greater than 5 µM; in test [3] (Homo sapiens, BHT-101), greater than 5 µM; in [4] (Homo sapiens, H9), greater than 5 µM; in test [5] (Homo sapiens, PFSK-1) it was greater than 5 µM; in [6] (Homo sapiens, D-423MG) it was greater than 5 µM. For the same molecule, the IC50 in test [7] (Homo sapiens, HCC38) was greater than 5 µM; in test [8] (Homo sapiens, MEL-JUSO) it was greater than 5 µM; in test [9] (Homo sapiens, UO-31), greater than 5 µM; in [10] (Homo sapiens, IGROV-1), greater than 5 µM; in [11] (Homo sapiens, MKN-28), greater than 5 µM; in test [12] (Homo sapiens, LoVo), greater than 5 µM. Also, the IC50 was greater than 5 µM in test [13] (Homo sapiens, ECC10); greater than 5 µM in test [14] (Homo sapiens, NBsusSR); greater than 5 µM in [15] (Homo sapiens, T47D); greater than 5 µM in test [16] (Homo sapiens, NCI-H2009); greater than 5 µM in [17] (Homo sapiens, HMV-2); greater than 5 µM in test [18] (Homo sapiens, CFPAC-1). Also, the IC50 in test [19] (Homo sapiens, NCI-H1048) is greater than 5 µM; in test [20] (Homo sapiens, NCI-H2452) it was greater than 5 µM; in test [21] (Homo sapiens, A-375) it was greater than 5 µM; in test [22] (Homo sapiens, CHP-212), greater than 5 µM; in test [23] (Homo sapiens, C32), greater than 5 µM; in test [24] (Homo sapiens, TI-73), greater than 5 µM.
As to `Cc1cn(-c2cc(NC(=O)c3ccc(C)c(Nc4nccc(-c5cccnc5)n4)c3)cc(C(F)(F)F)c2)cn1` [NILOTINIB], the IC50 was greater than 2 µM in test [1] (Homo sapiens, G-402); greater than 2 µM in test [2] (Homo sapiens, MCF7); 0.643 µM in test [3] (Homo sapiens, BHT-101); greater than 2 µM in test [4] (Homo sapiens, H9); greater than 2 µM in test [5] (Homo sapiens, PFSK-1); greater than 2 µM in [6] (Homo sapiens, D-423MG). Further, the IC50 in [7] (Homo sapiens, HCC38) was greater than 2 µM; in test [8] (Homo sapiens, MEL-JUSO), greater than 2 µM; in [9] (Homo sapiens, UO-31) it was greater than 2 µM; in test [10] (Homo sapiens, IGROV-1), greater than 2 µM; in [11] (Homo sapiens, MKN-28) it was greater than 2 µM; in [12] (Homo sapiens, LoVo), greater than 2 µM. For the same molecule, the IC50 in [13] (Homo sapiens, ECC10) was greater than 2 µM; in [14] (Homo sapiens, NBsusSR) it was greater than 2 µM; in test [15] (Homo sapiens, T47D), greater than 2 µM; in test [16] (Homo sapiens, NCI-H2009), greater than 2 µM; in test [17] (Homo sapiens, HMV-2) it was 0.749 µM; in [18] (Homo sapiens, CFPAC-1) it was greater than 2 µM. Moreover, the IC50 in test [19] (Homo sapiens, NCI-H1048) is greater than 2 µM; in test [20] (Homo sapiens, NCI-H2452), greater than 2 µM; in [21] (Homo sapiens, A-375), greater than 2 µM; in [22] (Homo sapiens, CHP-212), greater than 2 µM; in test [23] (Homo sapiens, C32), greater than 2 µM; in test [24] (Homo sapiens, TI-73), greater than 2 µM.
`CO[C@H]1C[C@@H]2CC[C@@H](C)[C@@](O)(O2)C(=O)C(=O)N2CCCC[C@H]2C(=O)O[C@H]([C@H](C)C[C@@H]2CC[C@@H](OC(=O)C(C)(CO)CO)[C@H](OC)C2)CC(=O)[C@H](C)/C=C(\C)[C@@H](O)[C@@H](OC)C(=O)[C@H](C)C[C@H](C)/C=C/C=C/C=C/1C` [TEMSIROLIMUS]: the IC50 in [1] (Homo sapiens, G-402) was greater than 0.2 µM; in [2] (Homo sapiens, MCF7) it was greater than 0.2 µM; in test [3] (Homo sapiens, BHT-101), 0.197 µM; in test [4] (Homo sapiens, H9), 0.00488 µM; in test [5] (Homo sapiens, PFSK-1) it was 0.0277 µM; in [6] (Homo sapiens, D-423MG), greater than 0.2 µM. In addition, the IC50 in test [7] (Homo sapiens, HCC38) is greater than 0.2 µM; in test [8] (Homo sapiens, MEL-JUSO) it was 0.0666 µM; in [9] (Homo sapiens, UO-31), greater than 0.2 µM; in [10] (Homo sapiens, IGROV-1) it was 0.0388 µM; in [11] (Homo sapiens, MKN-28), greater than 0.2 µM; in test [12] (Homo sapiens, LoVo), greater than 0.2 µM. Also, the IC50 in test [13] (Homo sapiens, ECC10) was greater than 0.2 µM; in test [14] (Homo sapiens, NBsusSR) it was 0.0213 µM; in [15] (Homo sapiens, T47D) it was 0.107 µM; in test [16] (Homo sapiens, NCI-H2009), greater than 0.2 µM; in test [17] (Homo sapiens, HMV-2) it was greater than 0.2 µM; in [18] (Homo sapiens, CFPAC-1), greater than 0.2 µM. For the same molecule, the IC50 in test [19] (Homo sapiens, NCI-H1048) is greater than 0.2 µM; in [20] (Homo sapiens, NCI-H2452), greater than 0.2 µM; in test [21] (Homo sapiens, A-375), greater than 0.2 µM; in [22] (Homo sapiens, CHP-212), 0.0524 µM; in [23] (Homo sapiens, C32), 0.0466 µM; in [24] (Homo sapiens, TI-73), greater than 0.2 µM.
On to CISPLATIN, for which the IC50 in test [1] (g-402) turned out to be 7.11 µM; in [2] (mcf7), 15.2 µM; in test [3] (bht-101), 5.82 µM; in test [4] (h9), 3.65 µM; in [5] (pfsk-1), 37.7 µM; in test [6] (d-423mg), 13.9 µM. Further, the IC50 was 160 µM in test [7] (hcc38); 18.8 µM in test [8] (mel-juso); 12.9 µM in [9] (uo-31); 0.343 µM in test [10] (igrov-1); 31.4 µM in test [11] (mkn-28); 58.2 µM in test [12] (lovo). The IC50 amounted to 258 µM in test [13] (ecc10); 1.33 µM in [14] (nbsussr); 129 µM in test [15] (t47d); 496 µM in test [16] (nci-h2009); 11.2 µM in test [17] (hmv-2); 35.2 µM in test [18] (cfpac-1). Also, the IC50 worked out at 9.87 µM in [19] (nci-h1048); 213 µM in test [20] (nci-h2452); 535 µM in test [21] (a-375); 25.5 µM in test [22] (chp-212); 6.38 µM in [23] (c32); 8.53 µM in [24] (ti-73).

A word on the IC50: it is the concentration that gives 50% inhibition.
